In brackets after ≈: the same amount, converted by molar mass. Where two headings read alike, the source gives them in different places. Blank lines part the entries; values can stand above or below the molecule they belong to.
Tests used:
[1] = system: Staphylococcus aureus (Isolate ID ATCC 29213); test: Bacterial assay: MIC by broth microdilution or agar dilution (CLSI), S. aureus ATCC 29213; type: cell-based; conditions: Staphylococcus aureus
How it was run: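 MICs by CLSI broth microdilution or agar dilution against S. aureus ATCC 29213 and its FtsZ-G196A mutant. Values reported as ranges: A ≤0.25 μg/mL, B >0.25–1.0, C >1.0–16, D >16 μg/mL.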

[2] = system: S. aureus ATCC 43300 (MRSA); test: microbe, parasite or virus in culture; type: cell-based; conditions: Staphylococcus aureus
Description: (§1) Compounds are tested for antimicrobial activity by susceptibility testing in liquid or on solid media. Minimum inhibitory concentrations (MICs) for compounds against each strain are determined by the broth microdilution or agar dilution method according to the guidelines of the Clinical Laboratories and Standards Institute, formerly the National Committee for Clinical Laboratory Standards (Clinical Laboratories and Standards Institute. Methods for Dilution Antimicrobial Susceptibility Tests for Bacteria That Grow Aerobically; Approved Standard—Seventh Edition. Document M7-A7. CLSI, Wayne, Pa., 2006; Clinical Laboratories and Standards Institute). The bacterial strains tested include S. aureus (Staphylococcus aureus (Isolate ID ATCC 29213)) and an FtsZ mutant of this isolate (FtsZ-G196A Staphylococcus aureus (Isolate ID GG/190723/sa/1.2)). Compound MICs were determined to be in the following activity ranges “A” activity≦0.25 μg/mL; “B” activity>0.25 μg/mL-1.0 μg/mL; “C” activity>1.0 μg/mL-16 μg/mL; “D” activity>16 μg/mL and ND=not determined. The bracketed entries indicate entantiomer(s) and their activity.
(§2) Selected compounds were also tested against a panel of target strains and their MICs are shown in Table 3 against the gold standard Linezolid. […] The activity of the compounds observed against S. aureus was also shown to be maintained within a narrow range across the staphylococcal panel tested.

[3] = system: S. aureus ATCC BAA-44 (MDRSA); test: microbe, parasite or virus in culture; type: cell-based; conditions: Staphylococcus aureus, ATCCBAA44
Description: as §1, §2

[4] = system: S. saprophyticus ATCC 43809; test: MIC, staphylococcal panel; type: cell-based; conditions: Staphylococcus saprophyticus, ATCC43809
Description: as §1, §2

S. hominis ATCC 27844 = test: MIC, staphylococcal panel; type: cell-based; conditions: Staphylococcus hominis, ATCC27844
Description: as §1, §2

S. warneri ATCC 49454 = test: MIC, staphylococcal panel; type: cell-based; conditions: Staphylococcus warneri, ATCC49454
Description: as §1, §2

[5] = system: S. lugdunensis ATCC 43809; test: MIC, staphylococcal panel; type: cell-based; conditions: Staphylococcus lugdunensis, ATCC43809
Description: as §1, §2

[6] = system: S. haemolyticus ATCC 29970; test: MIC, staphylococcal panel; type: cell-based; conditions: Staphylococcus haemolyticus, ATCC29970
Description: as §1, §2

[7] = system: S. aureus ATCC 19636 (Smith); test: MIC, staphylococcal panel; type: cell-based; conditions: Staphylococcus aureus, ATCC19636
Description: as §1, §2

[8] = system: S. epidermidis ATCC 12228; test: MIC, staphylococcal panel; type: cell-based; conditions: Staphylococcus epidermidis, ATCC12228
Description: as §1, §2

[9] = system: FtsZ-G196A Staphylococcus aureus (Isolate ID GG/190723/sa/1.2); test: Bacterial assay: MIC, FtsZ G196A mutant strain; type: cell-based
Description: as §1
The comparative activity of selected compounds having a bromo-substituted oxazole against their corresponding non-brominated analogues is shown in Table 4.

[10] = Pharmacokinetic assay: plasma concentration by LC/MS/MS after single intravenous or peroral dose of 3 mg/kg; type: in vivo; conditions: 3 mg/kg IV dosing in mice
Description: The pharmacokinetic profiles of selected comparator compounds A-N in Table 6 and compounds of the invention were determined by measuring the compound concentration in plasma by LC/MS/MS following a single intravenous or peroral administration of the compounds at a dose of 3 mg/kg. The concentrations described are the mean plasma concentrations at each time point from three animals. Intravenous dose formulation was administered as a single bolus dose through the tail vein. Oral dose formulation was administered to animals by an oral gavage needle. In both cases the dose volume was 5.0 mL/kg. Blood was collected from anesthetized mice through a capillary guided into the retro-orbital plexus. The collected blood was centrifuged to obtain plasma and the compounds extracted into methanol prior to determining the compound concentration by LC/MS/MS. The results are shown graphically in FIG. 1 and for the AUC and CL parameters in Table 6.

[11] = ATCC29213, read-out: S. aureus MIC (μg/mL) Activity Range, S. aureus (ATCC29213)
[12] = read-out: MIC (μg/mL) FtsZ G196A mutant strain
[13] = ATCC29213, read-out: MIC (μg/mL) S. aureus (ATCC29213), Table 5, racemate and enantiomers
[14] = read-out: MIC (μg/mL) G196A mutant strain

MIC ([1]; ATCC29213, Staphylococcus aureus ATCC 29213, Table 3 panel, read-out: MIC): 2 µg/mL (≈ 5.93 µM)
MIC ([2]; S. aureus ATCC 43300 (MRSA), read-out: MIC): 2 µg/mL (≈ 5.93 µM)
MIC ([3]; S. aureus ATCC BAA-44 (MDRSA), read-out: MIC): 1 µg/mL (≈ 2.96 µM)
MIC ([4]; S. saprophyticus ATCC 43809, read-out: MIC): 2 µg/mL (≈ 5.93 µM)
MIC (S. hominis ATCC 27844; S. hominis ATCC 27844, read-out: MIC): 1 µg/mL (≈ 2.96 µM)
MIC (S. warneri ATCC 49454; S. warneri ATCC 49454, read-out: MIC): 2 µg/mL (≈ 5.93 µM)
MIC ([5]; S. lugdunensis ATCC 43809, read-out: MIC): 1 µg/mL (≈ 2.96 µM)
MIC ([7]; S. aureus ATCC 19636 (Smith), read-out: MIC): 2 µg/mL (≈ 5.93 µM)
MIC ([8]; S. epidermidis ATCC 12228, read-out: MIC): 1 µg/mL (≈ 2.96 µM)
SMILES: CC(=O)NC[C@H]1CN(c2ccc(N3CCOCC3)c(F)c2)C(=O)O1 [Linezolid, reference compound]
MIC ([6]; S. haemolyticus ATCC 29970, read-out: MIC): 1 µg/mL (≈ 2.96 µM)

SMILES: NC(=O)c1c(F)ccc(OC(CNC(=O)c2ccccc2)c2nc(-c3ccc(C(F)(F)F)cc3)c(Br)o2)c1F (stereo not shown) [Compound 292, 3-(2-benzamido-1-(5-bromo-4-(4-(trifluoromethyl)phenyl)oxazol-2-yl)ethoxy)-2,6-difluorobenzamide]
MIC [1, 11]: < 0.25 µg/mL
MIC [9, 12]: 1 µg/mL (≈ 1.64 µM)

SMILES: NC(=O)c1c(F)ccc(O[C@H](CO)c2nc(-c3ccc(C(F)(F)F)cc3)c(Br)o2)c1F (single isomer, unassigned) [Compound 38B]
clearance ([10]; mouse, plasma): 12 mL/min/kg
AUC ([10]; mouse, plasma, read-out: AUC): 4000 ng·h/mL
MIC ([1]; ATCC29213, Staphylococcus aureus ATCC 29213, Table 3 panel): 0.125 µg/mL (≈ 0.246 µM)
MIC [1, 13]: 0.125 µg/mL (≈ 0.246 µM)
MIC [1, 11]: < 0.25 µg/mL
MIC [2]: 0.125 µg/mL (≈ 0.246 µM)
MIC [3]: 0.125 µg/mL (≈ 0.246 µM)
MIC [4]: 0.06 µg/mL (≈ 0.118 µM)
MIC (S. hominis ATCC 27844): 0.125 µg/mL (≈ 0.246 µM)
MIC (S. warneri ATCC 49454): 0.25 µg/mL (≈ 0.493 µM)
MIC [5]: 0.25 µg/mL (≈ 0.493 µM)
MIC [6]: 0.125 µg/mL (≈ 0.246 µM)
MIC [7]: 0.125 µg/mL (≈ 0.246 µM)
MIC [8]: 0.125 µg/mL (≈ 0.246 µM)
MIC [9, 14]: 2 µg/mL (≈ 3.94 µM)

SMILES: NC(=O)c1c(F)ccc(OC(CO)c2nc(-c3ccc(C(F)(F)F)cc3)c(Br)o2)c1F (racemic) [Compound 38, 3-(1-(5-bromo-4-(4-(trifluoromethyl)phenyl)oxazol-2-yl)-2-hydroxyethoxy)-2,6-difluorobenzamide]
AUC [10]: 6700 ng·h/mL
clearance ([10]; mouse, plasma): 7 mL/min/kg
MIC [1, 13]: 0.25 µg/mL (≈ 0.493 µM)
MIC [1, 11]: < 0.25 µg/mL
MIC [9, 14]: 4 µg/mL (≈ 7.89 µM)

SMILES: NC(=O)c1c(F)ccc(OC(CNC(=O)c2ccccc2)c2nc(-c3ccc(C(F)(F)F)cc3)co2)c1F (stereo not shown) [Compound 289, 3-(2-benzamido-1-(4-(4-(trifluoromethyl)phenyl)oxazol-2-yl)ethoxy)-2,6-difluorobenzamide]
MIC [1, 11]: 1 to 16 µg/mL (≈ 1.88 to 30.1 µM)
MIC [9, 12]: > 256 µg/mL

SMILES: NC(=O)c1c(F)ccc(O[C@@H](CO)c2nc(-c3ccc(C(F)(F)F)cc3)c(Br)o2)c1F (single isomer, unassigned) [Compound 38A]
clearance ([10]; mouse, plasma): 6 mL/min/kg
AUC ([10]; mouse, plasma, read-out: AUC): 7800 ng·h/mL
MIC [1, 13]: 16 µg/mL (≈ 31.5 µM)
MIC [1, 11]: 1 to 16 µg/mL (≈ 1.97 to 31.5 µM)
MIC [9, 14]: 64 µg/mL (≈ 126 µM)

SMILES: C[C@@H](Oc1ccc(F)c(C(N)=O)c1F)c1nc(-c2ccc(C(F)(F)F)cc2)co1 [Compound 183, (R)-2,6-difluoro-3-(1-(4-(4-(trifluoromethyl)phenyl)oxazol-2-yl)ethoxy)benzamide]
MIC [1, 11]: 1 to 16 µg/mL (≈ 2.43 to 38.8 µM)
MIC [9, 12]: > 256 µg/mL

SMILES: COc1ccc(-c2coc([C@@H](C)Oc3ccc(F)c(C(N)=O)c3F)n2)cc1 [Compound 268B]
MIC [1, 11]: 1 to 16 µg/mL (≈ 2.67 to 42.7 µM)
MIC [9, 12]: > 256 µg/mL

SMILES: COc1ccc(-c2nc(C(C)Oc3ccc(F)c(C(N)=O)c3F)oc2Br)cc1 (racemic) [Compound 5]
MIC [1, 13]: 1 µg/mL (≈ 2.21 µM)
MIC [1, 11]: 0.25 to 1 µg/mL (≈ 0.552 to 2.21 µM)
MIC [9, 14]: 32 µg/mL (≈ 70.6 µM)

From US9511073B2, “Aromatic amides and uses thereof” (TAXIS Pharmaceuticals, Inc., priority 2011, dated 2016)
